Laboratory results published in patent US20110053900A1, “PROGESTERONE ANTAGONISTS SUCH AS CDB-4124 IN THE TREATMENT OF BREAST CANCER” (Repros Therapeutics inc, priority 2008, published 2011).

Key:
rabbit uterus = assay: Anti-McGinty and anti-Clauberg assays; format: in vivo; settings: average of anti-McGinty and anti-Clauberg results relative to CDB-2914 = 1.00
Description: Also given in the Table are the relative biological activities of the same compounds in the rabbit uterus by the anti-McGinty and anti-Clauberg assays. Compound CDB-2914 (listed at the end of the Table) was used as the control or reference compound (rabbit Biological Activity=1.00) for these experiments because results of experiments using CDB-2914 have been published before (Hild-Petito et al., 1996; Passaro et al., 1997; Reel et al., 1998; Lamer et al., 2000). For the anti-McGinty test, immature female rabbits received a subcutaneous injection of 5 μg estradiol in 10% ethanol/sesame oil daily for 6 consecutive days. On day 7, animals underwent sterile abdominal surgery to ligate a 3-4 cm segment of both uterine horns. The test compound in appropriate solvent was injected intraluminally into the ligated segment of one uterine horn and vehicle alone into the other. A stimulating dose of progesterone (267 μg/day) was administered subcutaneously to each rabbit daily for the next three days to induce endometrial proliferation. All animals were sacrificed at day 10 for removal of the uterus where a segment central to the ligatures was removed and fixed in 10% neutral buffered formalin and submitted for histological processing. Five micron sections stained with hematoxylin and cosin were evaluated microscopically for the degree of endometrial glandular proliferation. The percent inhibition of endometrial proliferation for each rabbit was calculated and the mean of the group of five animals recorded. For the Anti-Clauberg test, immature female rabbits received a subcutaneous injection of 5 μg estradiol in 10% ethanol/sesame oil daily for 6 consecutive days. On day 7, animals received progesterone by subcutaneous injection (160 μg/day) and the experimental compound in appropriate vehicle orally or subcutaneously for five consecutive days. One group of rabbits received progesterone only. Twenty-four hours after the last dose, all animals were sacrificed for removal of the uterus which was cleaned of all fat and connective tissue, weighed to the nearest 0.2 mg and placed in 10% neutral buffered formalin for subsequent histological processing. Five micron sections stained with hematoxylin and eosin were evaluated microscopically for the degree of endometrial glandular proliferation. The percent inhibition of endometrial proliferation at each dose level of the test compound was derived by comparison with progesterone-stimulated animals alone. The data presented in Table 1 (rabbit Biol. Act.) reflects the average of the results obtained for each compound by the anti-McGinty and anti-Clauberg assays relative to CDB-2914.

[1] = tested on: rabbit progesterone receptor (rbPR) and glucocorticoid receptor (rbGR); assay: Receptor-binding assays, ratio of relative binding affinities rbPR/rbGR; settings: RBA = EC50 of standard/EC50 of test compound x 100
Experimental: (§1) Certain antiprogestins were tested in receptor-binding assays for their ability to bind rabbit progesterone receptor (rbPR) and glucocorticoid receptor (rbGR). Briefly, cytosol containing PR or GR were prepared in TEGMD buffer (10 mM Tris, pH 7.2, 1.5 mM EDTA, 0.2 mM sodium molybdate, 10% glycerol, 1 mM DTT) from uterus or thymus, respectively, of estradiol-primed immature rabbits. For PR binding, the cytosol was incubated with 6 nM 1,2-[^3H]progesterone (50.0 Ci/mmole) and competitors were added at concentrations from 2 to 100 nM. For binding to GR, the cytosol was incubated with 6 nM 6,7-[^3H]-dexamethasone (40 Ci/mmol) and test compounds were added at concentrations from 20 to 100 nM. After overnight incubation at 4° C., bound and unbound [^3H] steroids were separated by addition of dextran-coated charcoal and centrifugation at 2100×g for 15 min at 4
C. Supernatants containing the [3H]-steroid receptor complexes were decanted into vials containing 4 ml Optifluor (Packard Instrument Co.), vortexed, equilibrated in a liquid scintillation counter for 30 minutes and then counted for 2 minutes. The ECso (Effective Concentration) for each standard curve and each of the compound curves was determined by entering the counting data into a four parameter sigmoidal computer program (RiaSmart® Immunoassay Data Reduction Program, Packard Instrument Co., Meriden, Conn.). Relative binding affinity (RBA) for each compound was calculated using the following equation: EC50 of standard/EC50 of test compound×100. The standards for the PR and GR assays were unlabeled progesterone and dexamethasone, respectively. The results of these experiments are summarized in Table 1, as a ratio of the relative binding affinities of each compound for the rbPR and rbGR receptors (rbPR/rbGR).

[2] = target: T1, glucocorticoid receptor (rbGR) (Oryctolagus cuniculus, UniProt P59667); assay: Glucocorticoid receptor binding; parameters: species or system rabbit
T1 construct: cytosol containing PR or GR were prepared in TEGMD buffer; from tissue; host or cells: thymus of estradiol-primed immature rabbits (cytosol)
T1 sequence (P59667 1-772): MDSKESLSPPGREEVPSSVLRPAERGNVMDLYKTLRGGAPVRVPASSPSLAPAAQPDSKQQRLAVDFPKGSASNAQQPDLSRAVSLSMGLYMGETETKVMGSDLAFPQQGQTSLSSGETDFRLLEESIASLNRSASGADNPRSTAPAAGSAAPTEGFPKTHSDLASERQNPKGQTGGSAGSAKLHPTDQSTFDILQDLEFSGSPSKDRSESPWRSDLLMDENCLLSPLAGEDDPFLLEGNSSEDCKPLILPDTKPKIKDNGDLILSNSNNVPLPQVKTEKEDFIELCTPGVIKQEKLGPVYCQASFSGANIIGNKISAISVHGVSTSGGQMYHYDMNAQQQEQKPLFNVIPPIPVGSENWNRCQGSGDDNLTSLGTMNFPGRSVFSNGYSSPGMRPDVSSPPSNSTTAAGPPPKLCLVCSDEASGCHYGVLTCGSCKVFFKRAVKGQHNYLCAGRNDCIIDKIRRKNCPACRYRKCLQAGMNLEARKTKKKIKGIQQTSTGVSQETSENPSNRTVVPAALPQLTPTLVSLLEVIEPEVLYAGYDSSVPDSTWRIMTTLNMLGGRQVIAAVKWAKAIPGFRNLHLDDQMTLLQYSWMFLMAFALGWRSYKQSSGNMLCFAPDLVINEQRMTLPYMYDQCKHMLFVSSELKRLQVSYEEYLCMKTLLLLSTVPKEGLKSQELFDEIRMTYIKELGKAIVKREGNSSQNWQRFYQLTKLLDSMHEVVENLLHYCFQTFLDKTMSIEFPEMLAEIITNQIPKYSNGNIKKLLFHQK
Experimental: as §1, with “Briefly, cytosol containing PR or GR were prepared in TEGMD buffer (10 mM Tris, pH 7.2, 1.5 mM EDTA, 0.2 mM sodium molybdate, 10% glycerol, 1 mM DTT) from uterus or thymus, respectively, of estradiol-primed immature rabbits.” left out
C. Supernatants containing the [3H]-steroid receptor complexes were decanted into vials containing 4 ml Optifluor (Packard Instrument Co.), vortexed, equilibrated in a liquid scintillation counter for 30 minutes and then counted for 2 minutes. […] The standards for the PR and GR assays were unlabeled progesterone and dexamethasone, respectively.

## CC(=O)O[C@]1(C(C)=O)CC[C@H]2[C@@H]3CCC4=CC(=O)CCC4=C3[C@@H](c3ccc(N(C)C)cc3)C[C@@]21C [CDB-2914, 17α-acetoxy-11β-(4-N,N-dimethylaminophenyl)-19-norpregna-4,9-dien-3,20-dione, reference compound]
Rabbit uterus
  rabbit Biol. Act.: 1.00
[1]
  rbPR/rbGR (ratio of the relative binding affinities for rbPR and rbGR): 1.07
[2]
  anti-glucocorticoid receptor activity / glucocorticoid receptor binding (in words): moderately active in glucocorticoid receptor binding
